The values below come from patent publication US4385112A (priority 1980, dated 1983).

One may read the Km as the substrate concentration at which the rate is half of its maximum.

For the first test, the system named is nucleoside oxidase. Kind of test: Amount of oxygen consumption and hydrogen peroxide generation in the reaction. The class given is biochemical, Pseudomonas putida B-0781.
Conditions: not given
On the procedure:
The amount of consumed oxygen (measured by an oxygen electrode) and generated hydrogen peroxide (colorimetric assay at 545 nm) were measured. Results: adenosine 0.05μ mole; consumed oxygen 0.097μ mole; and generated hydrogen peroxide 0.101μ mole.
On to `Nc1ncnc2c1ncn2[C@@H]1O[C@H](CO)[C@@H](O)[C@H]1O` [adenosine], for which the “moles of hydrogen peroxide generated per 1 mole of adenosine” value turned out to be 2 mol and the “moles of oxygen consumed per 1 mole of adenosine” value stood at 2 mol.

The same test, now with this note: adenosine 0.05 μ mole, nucleoside oxidase 3 U., colorimetric assay at 545 nm.
With `Nc1ncnc2c1ncn2[C@@H]1O[C@H](CO)[C@@H](O)[C@H]1O` [adenosine], the generated hydrogen peroxide is reported as 0.101 μ mole.

The same test, now with this note: adenosine 0.05 μ mole, nucleoside oxidase 3 U., oxygen electrode.
`Nc1ncnc2c1ncn2[C@@H]1O[C@H](CO)[C@@H](O)[C@H]1O` [adenosine] yielded a consumed oxygen of 0.097 μ mole.

For a further test, the system named is nucleoside oxidase. Kind of test: Substrate specificity: relative enzymatic activity on various substrates. The test is classed as biochemical, Pseudomonas putida B-0781. The note with it: substrate each 1 mM concentration. On the procedure: Relative enzymatic activities on various substrates (nucleoside, nucleic acid base, sugar, and nucleotide, each 1 mM concentration) shown in Table 1 were measured.
A reaction mixture (0.5 ml) consisting of 0.2 M dimethylglutarate-NaOH buffer (pH 6.0) 0.2 ml, 0.2 w/w% N,N-diethyl-m-toluidine 0.05 ml, 0.3 w/w% 4-aminoantipyrine 0.05 ml, 10 mM adenosine 0.05 ml and distilled water 0.10 ml was pre-incubated at 37° C. for 3 minutes. After adding enzyme solution (20 μl), the mixture was incubated at 37° C. for 10 minutes, and 0.5 ml of 4 M urea solution containing 0.2% cetylpyridiniumchloride was added to stop the reaction. […] Then the enzyme solution was replaced by distilled water (20 μl) as a control (AB).
(§1) Enzymatic activity should be measured within the value of As below 0.15.
One unit (1 U.) of enzyme activity is that amount of enzyme such that 1μ mole of hydrogen peroxide is generated in one minute at 37° C. with adenosine as substrate, and represented by the following equation: […]
Turning to `Nc1ncnc2c1ncn2[C@@H]1O[C@H](COP(=O)(O)OP(=O)(O)OP(=O)(O)O)[C@@H](O)[C@H]1O` [5'-ATP], the Relative activity was determined as 0%.

In the case of `Nc1nc2c(ncn2[C@@H]2O[C@H](CO)[C@@H](O)[C@H]2O)c(=O)[nH]1` [guanosine], the Relative activity is 97.1%. For the compound `Nc1nc2c(ncn2[C@@H]2O[C@H](COP(=O)(O)O)[C@@H](O)[C@H]2O)c(=O)[nH]1` [5'-GMP], the Relative activity turned out to be 0%. With `O=c1ccn([C@@H]2O[C@H](COP(=O)(O)O)[C@@H](O)[C@H]2O)c(=O)[nH]1` [5'-UMP], the Relative activity came to 0%. In the case of `O=c1[nH]c(=O)c2ncn([C@@H]3O[C@H](CO)[C@@H](O)[C@H]3O)c2[nH]1` [xanthosine], the Relative activity is 14.3%. On the same count and under the same terms, for `Nc1ncnc2c1ncn2[C@@H]1O[C@H](COP(=O)(O)OP(=O)(O)O)[C@@H](O)[C@H]1O` [5'-ADP] the value was 0%; for `Nc1ccn([C@@H]2O[C@H](CO)[C@@H](O)[C@@H]2O)c(=O)n1` [arabinosylcytosine, 1-β-D-arabinofuranosylcytosine, reference compound], 8.1%. As for `NC(=O)c1ncn([C@@H]2O[C@H](CO)[C@@H](O)[C@H]2O)c1O` [bredinine, 4-carbamoyl-1-D-ribofuranosylimidazolium-5-olate, reference compound], the Relative activity is 48.2%. Take `Cc1cn([C@H]2C[C@H](O)[C@@H](CO)O2)c(=O)[nH]c1=O` [thymidine]: the Relative activity stood at 94.3%.

Regarding `O=C[C@H](O)[C@H](O)[C@H](O)CO` [D-ribose], the Relative activity is given as 0%. Regarding `O=c1[nH]c(=O)c2ncn([C@@H]3O[C@H](COP(=O)(O)O)[C@@H](O)[C@H]3O)c2[nH]1` [5'-XMP], the Relative activity stood at 0%. Same read-out and setting: for `Nc1ccn([C@@H]2O[C@H](CO)[C@@H](O)[C@H]2O)c(=O)n1` [cytidine] the value was 65.7%; for `O=P(O)(O)O[C@H]1O[C@H](CO)[C@@H](O)[C@H]1O` [α-D-ribose-1-phosphate], 0%; for `Nc1ncnc2c1ncn2[C@@H]1O[C@H](COP(=O)(O)O)[C@@H](O)[C@H]1O` [5'-AMP], 0%. With `Nc1ncnc2c1ncn2[C@H]1C[C@H](O)[C@@H](CO)O1` [2'-deoxyadenosine], the Relative activity was 99.1%. Regarding `O=c1[nH]cnc2nc[nH]c12` [hypoxanthine], the Relative activity is 0%. Same read-out and setting: the figure for `Cc1c[nH]c(=O)[nH]c1=O` [thymine] is 0%. For `OC[C@H]1O[C@@H](n2cnc3c(O)ncnc32)[C@H](O)[C@@H]1O` [inosine], the Relative activity worked out at 91.4%. Take `O=c1cc[nH]c(=O)[nH]1` [uracil]: the Relative activity came out at 0%.

Turning to `Nc1ncnc2nc[nH]c12` [adenine], the Relative activity worked out at 0%. Same read-out and setting: the figure for `O=c1[nH]c(=O)c2[nH]cnc2[nH]1` [xanthine] is 0%.

As for `Nc1ncnc2c1ncn2[C@@H]1O[C@H](CO)[C@@H](O)[C@@H]1O` [arabinosyladenine, reference compound], the Relative activity was found to be 67.2%. For the compound `Nc1ncnc2c1ncn2[C@@H]1O[C@H](CO)[C@@H](O)[C@H]1O` [adenosine], the Relative activity is listed as 100%. For the compound `O=c1ccn([C@@H]2O[C@H](CO)[C@@H](O)[C@H]2O)c(=O)[nH]1` [uridine], the Relative activity is listed as 94.3%. With `Nc1ccn([C@@H]2O[C@H](COP(=O)(O)O)[C@@H](O)[C@H]2O)c(=O)n1` [5'-CMP], the Relative activity was determined as 0%.

In another test the test system is nucleoside oxidase. As to the kind of experiment: Effect of surface active agent on enzyme activity (Table 3). The class given is biochemical, Pseudomonas putida B-0781. As to conditions: 0.1 w/w % surface active agent; None 100. As to the method: as §1
(§2) One unit (1 U.) of enzyme activity is that amount of enzyme such that 1μ mole of hydrogen peroxide is generated in one minute at 37° C. with adenosine as substrate, and represented by the following equation:
(§3) Enzyme activity (U/ml)=1.25×(As-AB)×dilution ratio.
Turning to Triton X-100, the Relative activity is 104%.

For the compound `C[C@H](CCC(=O)O)[C@H]1CC[C@H]2[C@@H]3CC[C@@H]4C[C@H](O)CC[C@]4(C)[C@H]3C[C@H](O)[C@]12C` [sodium deoxycholate], the Relative activity came out at 102%.

On to `CCCCCCCCCCCCOS(=O)(=O)[O-].[Na+]` [sodium dodecyl sulfate], for which the Relative activity amounted to 66%.

As for `CCCCCCCCCCCCCCCC[N+](C)(C)C.[Cl-]` [cetyl trimethylammonium chloride], the Relative activity was determined as 78%. sodium lauryl benzene sulfonate: the Relative activity was found to be 38%.

A further test has as its system nucleoside oxidase. Kind of test: Effect of metal ions on enzyme activity (Table 2). The test is classed as biochemical, Pseudomonas putida B-0781. The note with it: control 100; 10 min. The arrangement: concentration or dose not given beside the values. On the procedure:
as §1, §2, §3
On to `[Ba+2]` [Ba^2+], for which the Relative activity worked out at 100%. As for `[Mg+2]` [Mg^2++], the Relative activity came to 104%. As for `O=C(O)c1cc[c]([Hg][Cl])cc1` [PCMB, reference compound], the Relative activity is 102%.

Consider `O=C(O)CN(CCN(CC(=O)O)CC(=O)O)CC(=O)O` [EDTA, reference compound], for which the Relative activity was found to be 98%. For `[Co+2]` [Co^2+], the Relative activity is 104%. Same read-out and setting: for `[Mn+2]` [Mn^2+] the value was 110%. Turning to `[Ca+2]` [Ca^2+], the Relative activity was 102%. On the same count and under the same terms, the figure for `[Zn+2]` [Zn^2+] is 94%.

The subject of a further test is nucleoside oxidase. Kind of test: Km value of the enzyme. The note with it: for adenosine. The test is classed as biochemical, Pseudomonas putida B-0781. As to the method:
as §1, §2, §3
Regarding `Nc1ncnc2c1ncn2[C@@H]1O[C@H](CO)[C@@H](O)[C@H]1O` [adenosine], the Km was determined as 45 µM.
